According to patent publication US9365576B2, “Pyrrolopyrrolidinone compounds” (Novartis AG, priority 2012, dated 2016):

Each compound was assayed against human MDM2 protein (amino acids 2-188) (Homo sapiens (Human), UniProt Q00987) (assay: TR-FRET assay, p53-MDM2 Assay 2 (modified)). Conditions: TR-FRET; 0.1 nM MDM2, 0.1 nM Europium labeled streptavidin, Tecan genios Pro reader; read-out: IC50 p53-MDM2 Assay 2.
Sequence of human MDM2 protein (amino acids 2-188) (Q00987 2-188): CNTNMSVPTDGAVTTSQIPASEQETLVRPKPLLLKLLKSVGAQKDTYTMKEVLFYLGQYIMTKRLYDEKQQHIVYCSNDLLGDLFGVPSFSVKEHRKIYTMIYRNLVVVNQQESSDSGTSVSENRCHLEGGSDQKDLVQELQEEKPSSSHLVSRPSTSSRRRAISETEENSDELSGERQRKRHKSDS
Assay type: binding
Outline: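 Biotinylated human MDM2 (aa 2–188, 1.25 nM) was preincubated 15 min at room temperature with 0.625 nM Eu-streptavidin, then 10 nM Cy5-p53 peptide (aa 18–26) added for 15 min. TR-FRET ratio 665/620 nm (excitation 340 nm) was read; IC50 came from curve fitting.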
`COc1ncc(-c2cc3c(n2C(C)C)C(c2ccc(Cl)c(F)c2)N(c2cc(Cl)c(=O)n(C)c2)C3=O)c(OC)n1` (stereo not drawn) [Example 192, 6-(4-Chloro-3-fluoro-phenyl)-5-(5-chloro-1-methyl-6-oxo-1,6-dihydro-pyridin-3-yl)-2-(2,4-dimethoxy-pyrimidin-5-yl)-1-isopropyl-5,6-dihydro-1H-pyrrolo[3,4-b]pyrrol-4-one] gave an IC50 of 0.128 nM.
Work on `COc1nc(N(C)C)ncc1-c1cc2c(n1C(C)C)C(c1ccc(Cl)c(F)c1)N(c1cc(Cl)c(=O)n(C)c1)C2=O` (stereo not drawn) [Example 193, 6-(4-Chloro-3-fluoro-phenyl)-5-(5-chloro-1-methyl-6-oxo-1,6-dihydro-pyridin-3-yl)-2-(2-dimethylamino-4-methoxy-pyrimidin-5-yl)-1-isopropyl-5,6-dihydro-1H-pyrrolo[3,4-b]pyrrol-4-one] yielded an IC50 of 0.139 nM.
For `COc1nc(N(C)C)ncc1-c1cc2c(n1C(C)C)C(c1ccc(C#N)c(F)c1)N(c1cc(Cl)c(=O)n(C)c1)C2=O` (stereo not drawn) [Example 194, 4-[5-(5-Chloro-1-methyl-6-oxo-1,6-dihydro-pyridin-3-yl)-2-(2-dimethylamino-4-methoxy-pyrimidin-5-yl)-1-isopropyl-4-oxo-1,4,5,6-tetrahydro-pyrrolo[3,4-b]pyrrol-6-yl]-2-fluoro-benzonitrile], the IC50 was 0.194 nM.
`COc1ncc(-c2cc3c(n2C(C)C)C(c2ccc(C#N)c(F)c2)N(c2cc(Cl)c(=O)n(C)c2)C3=O)c(OC)n1` (stereo not drawn) [Example 195, 4-[5-(5-Chloro-1-methyl-6-oxo-1,6-dihydro-pyridin-3-yl)-2-(2,4-dimethoxy-pyrimidin-5-yl)-1-isopropyl-4-oxo-1,4,5,6-tetrahydro-pyrrolo[3,4-b]pyrrol-6-yl]-2-fluoro-benzonitrile] was tested, and the IC50 was 0.252 nM.
For `COc1ncc(-c2cc3c(n2C(C)C)C(c2ccc(Cl)c(F)c2)N(c2cc(Cl)cn(C)c2=O)C3=O)c(OC)n1` (stereo not drawn) [Example 196, 6-(4-Chloro-3-fluoro-phenyl)-5-(5-chloro-1-methyl-2-oxo-1,2-dihydro-pyridin-3-yl)-2-(2,4-dimethoxy-pyrimidin-5-yl)-1-isopropyl-5,6-dihydro-1H-pyrrolo[3,4-b]pyrrol-4-one], the IC50 was 0.395 nM.
`COc1nc(N(C)C)ncc1-c1cc2c(n1C(C)C)C(c1ccc(Cl)c(F)c1)N(c1cc(Cl)cn(C)c1=O)C2=O` (stereo not drawn) [Example 197, 6-(4-Chloro-3-fluoro-phenyl)-5-(5-chloro-1-methyl-2-oxo-1,2-dihydro-pyridin-3-yl)-2-(2-dimethylamino-4-methoxy-pyrimidin-5-yl)-1-isopropyl-5,6-dihydro-1H-pyrrolo[3,4-b]pyrrol-4-one] was tested, and the IC50 was 0.356 nM.
With `COc1ncc(-c2cc3c(n2C(C)C)C(c2ccc(C#N)c(F)c2)N(c2cc(Cl)cn(C)c2=O)C3=O)c(OC)n1` (stereo not drawn) [Example 198, 4-[5-(5-Chloro-1-methyl-2-oxo-1,2-dihydro-pyridin-3-yl)-2-(2,4-dimethoxy-pyrimidin-5-yl)-1-isopropyl-4-oxo-1,4,5,6-tetrahydro-pyrrolo[3,4-b]pyrrol-6-yl]-2-fluoro-benzonitrile] the IC50 was 0.691 nM.
`COc1nc(N(C)C)ncc1-c1cc2c(n1C(C)C)C(c1ccc(C#N)c(F)c1)N(c1cc(Cl)cn(C)c1=O)C2=O` (stereo not drawn) [Example 199, 4-[5-(5-Chloro-1-methyl-2-oxo-1,2-dihydro-pyridin-3-yl)-2-(2-dimethylamino-4-methoxy-pyrimidin-5-yl)-1-isopropyl-4-oxo-1,4,5,6-tetrahydro-pyrrolo[3,4-b]pyrrol-6-yl]-2-fluoro-benzonitrile] showed an IC50 of 0.257 nM.
Work on `COc1ncc(-c2cc3c(n2C(C)C)C(c2ccc(C#N)c(F)c2)N(c2cc(Cl)c[nH]c2=O)C3=O)c(OC)n1` (stereo not drawn) [Example 200, 4-[5-(5-Chloro-2-oxo-1,2-dihydro-pyridin-3-yl)-2-(2,4-dimethoxy-pyrimidin-5-yl)-1-isopropyl-4-oxo-1,4,5,6-tetrahydro-pyrrolo[3,4-b]pyrrol-6-yl]-2-fluoro-benzonitrile] yielded an IC50 of 0.37 nM.
`COc1nc(N(C)C)ncc1-c1cc2c(n1C(C)C)C(c1ccc(C#N)c(F)c1)N(c1cc(Cl)c[nH]c1=O)C2=O` (stereo not drawn) [Example 201, 4-[5-(5-Chloro-2-oxo-1,2-dihydro-pyridin-3-yl)-2-(2-dimethylamino-4-methoxy-pyrimidin-5-yl)-1-isopropyl-4-oxo-1,4,5,6-tetrahydro-pyrrolo[3,4-b]pyrrol-6-yl]-2-fluoro-benzonitrile] gave an IC50 of 0.25 nM.
In the case of `COc1ncc(-c2cc3c(n2C(C)C)C(c2ccc(Cl)c(F)c2)N(c2cc(Cl)c[nH]c2=O)C3=O)c(OC)n1` (stereo not drawn) [Example 202, 6-(4-Chloro-3-fluoro-phenyl)-5-(5-chloro-2-oxo-1,2-dihydro-pyridin-3-yl)-2-(2,4-dimethoxy-pyrimidin-5-yl)-1-isopropyl-5,6-dihydro-1H-pyrrolo[3,4-b]pyrrol-4-one], the IC50 is reported as 0.201 nM.
`COc1nc(N(C)C)ncc1-c1cc2c(n1C(C)C)C(c1ccc(Cl)c(F)c1)N(c1cc(Cl)c[nH]c1=O)C2=O` (stereo not drawn) [Example 203, 6-(4-Chloro-3-fluoro-phenyl)-5-(5-chloro-2-oxo-1,2-dihydro-pyridin-3-yl)-2-(2-dimethylamino-4-methoxy-pyrimidin-5-yl)-1-isopropyl-5,6-dihydro-1H-pyrrolo[3,4-b]pyrrol-4-one] gave an IC50 of 0.119 nM.
`COc1ncc(-c2cc3c(n2C(C)C)C(c2ccc(Cl)cc2)N(c2cc(Cl)c[nH]c2=O)C3=O)c(OC)n1` (stereo not drawn) [Example 204, 5-(5-Chloro-2-oxo-1,2-dihydro-pyridin-3-yl)-6-(4-chloro-phenyl)-2-(2,4-dimethoxy-pyrimidin-5-yl)-1-isopropyl-5,6-dihydro-1H-pyrrolo[3,4-b]pyrrol-4-one] was tested, and the IC50 was 0.195 nM.
`COc1cn(C)c(=O)cc1-c1cc2c(n1C(C)C)C(c1ccc(Cl)cc1)N(c1cc(Cl)cnc1OC)C2=O` (stereo not drawn) [Example 205, 5-(5-Chloro-2-methoxy-pyridin-3-yl)-6-(4-chloro-phenyl)-1-isopropyl-2-(5-methoxy-1-methyl-2-oxo-1,2-dihydro-pyridin-4-yl)-5,6-dihydro-1H-pyrrolo[3,4-b]pyrrol-4-one] was tested, and the IC50 was 0.198 nM.
`COc1nc(N)ncc1-c1cc2c(n1C(C)C)C(c1ccc(Cl)cc1)N(c1cc(Cl)cnc1OC)C2=O` (stereo not drawn) [Example 206, 2-(2-Amino-4-methoxy-pyrimidin-5-yl)-5-(5-chloro-2-methoxy-pyridin-3-yl)-6-(4-chloro-phenyl)-1-isopropyl-5,6-dihydro-1H-pyrrolo[3,4-b]pyrrol-4-one] showed an IC50 of 0.509 nM.
Work on `COc1nc(N(C)C)ncc1-c1cc2c(n1C(C)C)C(c1ccc(C#N)cc1)N(c1cc(Cl)cnc1OC)C2=O` (stereo not drawn) [Example 207, 4-[5-[5-Chloro-2-methoxy-pyridin-3-yl)-2-(2-dimethylamino-4-methoxy-pyrimidin-5-yl)-1-isopropyl-4-oxo-1,4,5,6-tetrahydro-pyrrolo[3,4-b]pyrrol-6-yl]-benzonitrile] yielded an IC50 of 0.185 nM.
`COc1cn(C)c(=O)cc1-c1cc2c(n1C(C)C)C(c1ccc(Cl)cc1)N(c1c(F)c(C)nn1C)C2=O` (stereo not drawn) [Example 208, 6-(4-Chloro-phenyl)-5-(4-fluoro-2,5-dimethyl-2H-pyrazol-3-yl)-1-isopropyl-2-(5-methoxy-1-methyl-2-oxo-1,2-dihydro-pyridin-4-yl)-5,6-dihydro-1H-pyrrolo[3,4-b]pyrrol-4-one] gave an IC50 of 0.861 nM.
In the case of `COc1nc(N(C)C)ncc1-c1cc2c(n1C(C)C)C(c1ccc(Cl)cc1)N(c1c(F)c(C)nn1C)C2=O` (stereo not drawn) [Example 209, 6-(4-Chloro-phenyl)-2-(2-dimethylamino-4-methoxy-pyrimidin-5-yl)-5-(4-fluoro-2,5-dimethyl-2H-pyrazol-3-yl)-1-isopropyl-5,6-dihydro-1H-pyrrolo[3,4-b]pyrrol-4-one], the IC50 is reported as 0.158 nM.
In the case of `COc1nc(N)ncc1-c1cc2c(n1C(C)C)C(c1ccc(Cl)cc1)N(c1c(F)c(C)nn1C)C2=O` (stereo not drawn) [Example 210, 2-(2-Amino-4-methoxy-pyrimidin-5-yl)-6-(4-chloro-phenyl)-5-(4-fluoro-2,5-dimethyl-2H-pyrazol-3-yl)-1-isopropyl-5,6-dihydro-1H-pyrrolo[3,4-b]pyrrol-4-one], the IC50 is reported as 3.9 nM.
In the case of `COc1ncc(-c2cc3c(n2C(C)C)C(c2ccc(C#N)cc2)N(c2c(F)c(C)nn2C)C3=O)c(OC)n1` (stereo not drawn) [Example 211, 4-[2-(2,4-Dimethoxy-pyrimidin-5-yl)-5-(4-fluoro-2,5-dimethyl-2H-pyrazol-3-yl)-1-isopropyl-4-oxo-1,4,5,6-tetrahydro-pyrrolo[3,4-b]pyrrol-6-yl]-benzonitrile], the IC50 is reported as 1.68 nM.
For `COc1nc(N(C)C)ncc1-c1cc2c(n1C(C)C)C(c1ccc(Cl)cc1F)N(c1cc(C)nn1C)C2=O` (stereo not drawn) [Example 212, 6-(4-Chloro-2-fluoro-phenyl)-2-(2-dimethylamino-4-methoxy-pyrimidin-5-yl)-5-(2,5-dimethyl-2H-pyrazol-3-yl)-1-isopropyl-5,6-dihydro-1H-pyrrolo[3,4-b]pyrrol-4-one], the IC50 was 0.769 nM.
Work on `COc1ncc(-c2cc3c(n2C(C)C)C(c2ccc(Cl)cn2)N(c2cc(Cl)cn(C)c2=O)C3=O)c(OC)n1` (stereo not drawn) [Example 213, 5-(5-Chloro-1-methyl-2-oxo-1,2-dihydro-pyridin-3-yl)-6-(5-chloro-pyridin-2-yl)-2-(2,4-dimethoxy-pyrimidin-5-yl)-1-isopropyl-5,6-dihydro-1H-pyrrolo[3,4-b]pyrrol-4-one] yielded an IC50 of 14.2 nM.
`COc1ncc(-c2cc3c(n2C(C)C)C(c2ccc(Cl)cn2)N(c2ccc(F)c(Cl)c2)C3=O)c(OC)n1` (stereo not drawn) [Example 214, 5-(3-Chloro-4-fluoro-phenyl)-6-(5-chloro-pyridin-2-yl)-2-(2,4-dimethoxy-pyrimidin-5-yl)-1-isopropyl-5,6-dihydro-1H-pyrrolo[3,4-b]pyrrol-4-one] gave an IC50 of 1.89 nM.
For `COc1ncc(-c2cc3c(n2C(C)C)[C@H](c2ccc(C#N)cc2)N(c2cc(Cl)cn(C)c2=O)C3=O)c(OC)n1` [Example 215, 4-[(S)-5-(5-Chloro-1-methyl-2-oxo-1,2-dihydro-pyridin-3-yl)-2-(2,4-dimethoxy-Pyrimidin-5-yl)-1-isopropyl-4-oxo-1,4,5,6-tetrahydro-pyrrolo[3,4-b]pyrrol-6-yl]-benzonitrile], the IC50 was 0.527 nM.
